pEC50, pIC50: −log10 of the molar value. Values after ≈ are worked out from the molar mass of the structure shown.
Columns and labels:
[1] = target: Human neutrophil elastase (Homo sapiens (Human), UniProt P08246); assay: Human Neutrophil Elastase Assay; format: biochemical; details: substrate MeOSuc-Ala-Ala-Pro-Val-AMC 250 μM, pH 7.5
[2] = target: neutrophil elastase in zymosan-stimulated human plasma (Homo sapiens (Human), UniProt P08246); assay: Neutrophil elastase inhibitory activity in human plasma; format: biochemical; details: human plasma from zymosan-stimulated blood
Chain of neutrophil elastase in zymosan-stimulated human plasma (P08246 30-247): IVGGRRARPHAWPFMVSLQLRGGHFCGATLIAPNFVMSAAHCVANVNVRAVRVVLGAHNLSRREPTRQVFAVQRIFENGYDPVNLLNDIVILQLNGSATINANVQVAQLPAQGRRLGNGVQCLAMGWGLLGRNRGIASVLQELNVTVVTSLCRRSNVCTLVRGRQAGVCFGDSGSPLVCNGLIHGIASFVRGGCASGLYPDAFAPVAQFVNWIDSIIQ
Description: Assay for the Determination of Neutrophil Elastase Inhibitory Activity in Human Plasma
Citrated blood from human healthy donors is mixed with zymosan suspension and incubated at room temperature. This leads to the stimulation of neutrophils and the release of neutrophil elastase into the plasma. The stimulated blood is centrifuged to generate the neutrophil elastase enriched plasma.
Various concentrations of the neutrophil elastase inhibitor are incubated with plasma. […] A dose response curve is generated to calculate the EC50 of the inhibitor.

[3] = Metabolic stability with human liver microsomes; format: in vitro ADME; details: pH 7.6; pooled human liver microsomes, 1 μM test compound, 37° C.; read-out: t1/2 INVITRO
[4] = system: human hepatocytes; assay: Metabolic stability with human hepatocytes; format: in vitro ADME; details: 1 μM test compound, well stirred model
Description: Assay for the Determination of Metabolic Stability with Human Hepatocytes
The metabolic degradation of the test compound is assayed in a human hepatocyte suspension. Human hepatocytes (typically cryopreserved) are incubated in an appropriate buffer system (e.g. Dulbecco's modified eagle medium plus 3.5 μg glucagon/500 mL, 2.5 mg insulin/500 mL and 3.75 mg/500 mL hydrocortison) containing 5% species serum. Following a (typically) […] preincubation in an incubator (37° C., 10% CO2), 5 μl of test compound solution (80 μM; from […] stock solution in DMSO diluted 1:25 with medium) are added into 395 μl hepatocyte suspension (cell density in the range 0.25-5*10^6 cells/mL, typically 1*10^6 cells/mL; final concentration of test compound 1 μM, final DMSO concentration 0.05%). The cells are incubated for six hours (incubator, orbital shaker) and samples (25 μl) are taken at 0, 0.5, 1, 2, 4 and 6 hours. Samples are transferred into acetonitrile and pelleted by centrifugation (5 min) The supernatant is transferred to a new 96-deepwell plate, evaporated under nitrogen and resuspended. The decline of parent compound is analyzed by LC-MS/MS.
The intrinsic clearance CL_[…] is calculated as follows: CL_[…]=Dose/AUC=(C0/CD)/(AUD+clast/k)*1,000/60
(C0: initial concentration in the incubation [μM], CD: cell density of vital cells [10^6 cells/mL], AUD: area under the data [μM*h], clast: concentration of last data point [μM], k: slope of the regression line for parent decline [h^−1])
The calculated in vitro hepatic intrinsic clearance Qh can be scaled up to the intrinsic in vivo hepatic clearance and used to predict hepatic in vivo blood clearance (CL) by the use of a liver model (well stirred model): CL_[…]_INVIVO [ml/min/kg]=(CL_[…] [μL/min/10^6 cells]*hepatocellularity [10^6 cells/g liver]*liver factor [g/kg bodyweight])/1,000 CL [ml/min/kg]=CL_[…]_INVIVO [ml/min/kg]*hepatic blood flow [ml/min/kg]/(CL_[…]_INVIVO [ml/min/kg]+hepatic blood flow [ml/min/kg]) Qh [%]=CL [ml/min/kg]/hepatic blood flow [ml/min/kg])
(Hepatocellularity, human: 120*10^6 cells/g liver; liver factor, human: 25.7 g/kg bodyweight; blood flow, human: 21 ml/(min*kg))
The calculated in-vitro hepatic intrinsic clearance values of selected compounds in the metabolic stability assay with human hepatocytes described above are listed in Table 15.

[5] = Aqueous solubility (High Throughput Method); format: physicochemical; details: McIlvaine buffer pH 6.8 with 2.5% DMSO, kinetic from dmso stock, McIlvaine buffer pH 6.8, 2.5% DMSO, 24 h shaking
Description: Assay for Determination of Aqueous Solubility (“High Throughput Method”)
Starting from a […] DMSO stock solution, aliquots are diluted with acetonitrile/water (1/1) and McIlvaine buffer pH 6.8, respectively. After 24 h of shaking, the solutions or suspensions are filtered and analyzed by LC-UV. The amount dissolved in buffer is compared to the amount dissolved in the acetonitrile/water (1/1) solution. Solubility is measured from 0.001 to 0.125 mg/ml at a DMSO concentration of 2.5%. If more than 90% of the compound is dissolved in buffer, the value is marked with “>”.

[6] = Aqueous solubility (Shaked Flask Method); format: physicochemical; details: aqueous buffer, thermodynamic from solid, pH 6.8
Description: Assay for Determination of Aqueous Solubility (“Shaked Flask Method”)
Saturated solutions are prepared in well plates by adding an appropriate volume of selected aqueous media (typically in the range of 0.25-1.5 ml) into each well which contains a known quantity of solid drug substance (typically in the range 0.5-5.0 mg). The wells are shaken or stirred for a predefined time period (typically in a range of 2-24 h) and then filtered using appropriate filter membranes (typically PTFE-filters with 0.45 μm pore size). Filter absorption is avoided by discarding the first few drops of filtrate. The amount of dissolved drug substance is determined by UV spectroscopy or by HPLC with UV-detection. In addition, the pH of the aqueous saturated solution is measured using a glass-electrode pH meter.

[7] = target: cytochrome P450 2C9 (Homo sapiens (Human), UniProt P11712); assay: Cytochrome P450 2C9 inhibition; format: in vitro ADME; details: human liver microsomes, Diclofenac hydroxylation; read-out: IC50 (CYP 2C9)
Chain of cytochrome P450 2C9 (P11712 whole entry): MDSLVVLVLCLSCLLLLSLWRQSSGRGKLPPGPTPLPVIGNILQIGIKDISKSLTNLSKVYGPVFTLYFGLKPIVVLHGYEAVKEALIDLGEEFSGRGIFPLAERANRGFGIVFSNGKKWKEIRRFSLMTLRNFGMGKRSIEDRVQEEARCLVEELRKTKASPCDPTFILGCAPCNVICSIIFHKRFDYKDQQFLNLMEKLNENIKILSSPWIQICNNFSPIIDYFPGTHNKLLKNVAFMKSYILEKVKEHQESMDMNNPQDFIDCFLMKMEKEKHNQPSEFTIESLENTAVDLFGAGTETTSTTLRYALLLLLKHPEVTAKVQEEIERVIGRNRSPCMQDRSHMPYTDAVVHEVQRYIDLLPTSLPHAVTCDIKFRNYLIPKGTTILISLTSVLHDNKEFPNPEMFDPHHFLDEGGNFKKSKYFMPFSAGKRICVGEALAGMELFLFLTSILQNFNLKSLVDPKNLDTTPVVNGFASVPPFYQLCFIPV
Excerpt: Assay for Determination of Cytochrome P450 2C9 Inhibition
(§1) (I=inhibitor concentration, S=slope factor, B=background activity)

[8] = target: cytochrome P450 2C19 (Homo sapiens (Human), UniProt P33261); assay: Cytochrome P450 2C19 inhibition; format: in vitro ADME; details: human liver microsomes, (S)-Mephenytoin hydroxylation; read-out: IC50 (CYP 2C19)
Chain of cytochrome P450 2C19 (P33261 whole entry): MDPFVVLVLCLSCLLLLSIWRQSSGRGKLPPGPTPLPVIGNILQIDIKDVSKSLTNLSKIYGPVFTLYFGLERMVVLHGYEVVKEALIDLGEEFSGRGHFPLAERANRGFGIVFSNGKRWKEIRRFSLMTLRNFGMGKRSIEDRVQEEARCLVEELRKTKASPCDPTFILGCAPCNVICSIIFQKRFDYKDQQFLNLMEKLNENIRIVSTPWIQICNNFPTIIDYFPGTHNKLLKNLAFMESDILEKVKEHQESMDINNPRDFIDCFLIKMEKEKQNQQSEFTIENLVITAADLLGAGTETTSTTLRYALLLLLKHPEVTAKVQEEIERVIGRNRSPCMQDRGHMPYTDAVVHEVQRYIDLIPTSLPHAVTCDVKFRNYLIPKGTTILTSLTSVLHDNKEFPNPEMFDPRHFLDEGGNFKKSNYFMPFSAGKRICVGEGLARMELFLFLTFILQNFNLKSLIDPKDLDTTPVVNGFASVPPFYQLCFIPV
Excerpt: Assay for Determination of Cytochrome P450 2C19 Inhibition
as §1

[9] = target: cytochrome P450 2C8 (Homo sapiens (Human), UniProt P10632); assay: Cytochrome P450 2C8 inhibition; format: in vitro ADME; details: human liver microsomes, Amodiaquine deethylation; read-out: IC50 (CYP 2C8)
Chain of cytochrome P450 2C8 (P10632 whole entry): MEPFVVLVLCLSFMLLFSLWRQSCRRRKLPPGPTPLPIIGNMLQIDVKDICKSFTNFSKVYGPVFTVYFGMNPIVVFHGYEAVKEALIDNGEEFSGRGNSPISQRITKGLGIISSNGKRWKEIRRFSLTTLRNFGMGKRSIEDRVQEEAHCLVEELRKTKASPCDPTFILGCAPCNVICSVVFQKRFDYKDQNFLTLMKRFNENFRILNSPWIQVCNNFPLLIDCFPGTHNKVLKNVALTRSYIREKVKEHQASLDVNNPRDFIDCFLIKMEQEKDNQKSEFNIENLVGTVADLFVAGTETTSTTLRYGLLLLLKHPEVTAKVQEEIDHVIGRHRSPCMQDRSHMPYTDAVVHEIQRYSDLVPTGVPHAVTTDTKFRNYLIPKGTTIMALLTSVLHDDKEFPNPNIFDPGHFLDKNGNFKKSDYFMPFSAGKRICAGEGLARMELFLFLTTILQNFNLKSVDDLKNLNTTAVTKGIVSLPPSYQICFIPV
Excerpt: Assay for Determination of Cytochrome P450 2C8 Inhibition
as §1

[10] = target: hERG (human ether-a-go-go-related gene) potassium channel (Homo sapiens (Human), UniProt Q12809); assay: hERG inhibition patch clamp assay; format: cell-based
Chain of hERG (human ether-a-go-go-related gene) potassium channel (Q12809 whole entry): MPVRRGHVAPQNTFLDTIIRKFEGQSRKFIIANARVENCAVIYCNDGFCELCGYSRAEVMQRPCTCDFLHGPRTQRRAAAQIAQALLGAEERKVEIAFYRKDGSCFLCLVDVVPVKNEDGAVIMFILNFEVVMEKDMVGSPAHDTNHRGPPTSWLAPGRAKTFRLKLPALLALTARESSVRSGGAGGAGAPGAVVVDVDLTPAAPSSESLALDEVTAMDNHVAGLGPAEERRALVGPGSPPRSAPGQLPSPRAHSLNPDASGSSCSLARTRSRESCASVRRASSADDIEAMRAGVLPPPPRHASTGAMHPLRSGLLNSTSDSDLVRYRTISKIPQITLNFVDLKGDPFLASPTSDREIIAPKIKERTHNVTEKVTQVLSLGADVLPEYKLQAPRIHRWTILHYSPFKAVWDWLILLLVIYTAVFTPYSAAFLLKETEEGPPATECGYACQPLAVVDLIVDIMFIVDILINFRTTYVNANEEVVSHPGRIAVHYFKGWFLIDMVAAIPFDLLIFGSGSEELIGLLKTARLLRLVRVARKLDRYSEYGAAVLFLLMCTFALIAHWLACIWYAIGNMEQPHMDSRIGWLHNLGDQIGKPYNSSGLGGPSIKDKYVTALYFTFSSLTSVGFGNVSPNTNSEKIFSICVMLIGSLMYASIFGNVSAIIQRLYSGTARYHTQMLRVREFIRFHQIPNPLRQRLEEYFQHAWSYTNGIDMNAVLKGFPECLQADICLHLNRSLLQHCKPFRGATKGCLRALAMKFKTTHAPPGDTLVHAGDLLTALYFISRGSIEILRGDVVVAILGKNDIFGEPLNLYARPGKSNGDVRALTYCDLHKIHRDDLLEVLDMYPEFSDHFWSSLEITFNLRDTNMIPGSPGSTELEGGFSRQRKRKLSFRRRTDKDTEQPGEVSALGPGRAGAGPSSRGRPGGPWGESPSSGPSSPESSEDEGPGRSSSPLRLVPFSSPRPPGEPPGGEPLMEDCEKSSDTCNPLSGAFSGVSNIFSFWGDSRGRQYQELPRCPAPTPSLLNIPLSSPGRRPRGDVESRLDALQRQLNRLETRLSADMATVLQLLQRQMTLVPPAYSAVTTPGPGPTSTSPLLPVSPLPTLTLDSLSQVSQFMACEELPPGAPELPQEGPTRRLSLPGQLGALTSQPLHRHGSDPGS

[11] = target: hERG potassium channel (Homo sapiens (Human), UniProt Q12809); assay: hERG inhibition patch clamp assay; format: cell-based; details: human, @ 10 μM
Chain of hERG potassium channel (Q12809 whole entry): as above

Chain of Human neutrophil elastase (P08246 30-247): as the sequence (P08246 30-247) above

SMILES: CN1C(=O)N(c2cccc(C(F)(F)F)c2)C2=C(C(=O)CC2)[C@H]1c1ccc(C#N)cc1CNC(C)(C)C [Example 24, 3-(tert-Butylamino-methyl)-4-[(R)-3-methyl-2,5-dioxo-1-(3-trifluoromethyl-phenyl)-2,3,4,5,6,7-hexahydro-1H-cyclopentapyrimidin-4-yl]-benzonitrile]
- pIC50 [1]: 8.72
- pEC50 [2]: 8.15
- half-life at 1 μM [3]: > 2.17 h
- Qh [4]: 10%
- solubility at 24 h [5]: 48 µg/mL (≈ 96.7 µM)
- solubility [6]: > 10 µg/mL
- pIC50 [7]: < 4.30
- pIC50 [8]: < 4.30
- pIC50 [9]: < 4.30
- pIC50 [10]: < 4.52
- inhibition at 10 µM [11]: 7%

SMILES: CN1C(=O)N(c2cccc(C(F)(F)F)c2)C2=C(C(=O)CC2)[C@H]1c1ccc(C#N)cc1-c1ccc(=O)n(C)c1 [Example 23, 4-[(R)-3-Methyl-2,5-dioxo-1-(3-trifluoromethyl-phenyl)-2,3,4,5,6,7-hexahydro-1H-cyclopentapyrimidin-4-yl]-3-(1-methyl-6-oxo-1,6-dihydro-pyridin-3-yl)-benzonitrile]
- pIC50 [1]: > 9.00
- pEC50 [2]: 9.00
- half-life at 1 μM [3]: > 2.17 h
- Qh [4]: 13%
- solubility at 24 h [5]: 53 µg/mL (≈ 102 µM)
- solubility [6]: > 10 µg/mL
- pIC50 [7]: < 4.30
- pIC50 [8]: < 4.30
- pIC50 [9]: < 4.30
- pIC50 [10]: < 4.52
- inhibition at 10 µM [11]: 5%

SMILES: CN1C(=O)N(c2cccc(C(F)(F)F)c2)C2=C(C(=O)CC2)[C@H]1c1ccc(C#N)cc1C(N)=O [Example 2, 5-Cyano-2-[(R)-3-methyl-2,5-dioxo-1-(3-trifluoromethyl-phenyl)-2,3,4,5,6,7-hexahydro-1H-cyclopentapyrimidin-4-yl]-benzamide]
- pIC50 [1]: 8.62
- pEC50 [2]: 9.00
- half-life at 1 μM [3]: > 2.17 h
- Qh [4]: 12%
- solubility at 24 h [5]: 84 µg/mL (≈ 185 µM)
- solubility [6]: > 10 µg/mL
- pIC50 [7]: < 4.30
- pIC50 [8]: < 4.30
- pIC50 [9]: < 4.30
- pIC50 [10]: < 4.52
- inhibition at 10 µM [11]: 4%
